For 29 compounds, IC50 results are on record in patent publication US20240217978A1 (CHONG KUN DANG PHARMACEUTICAL CORP., priority 2021, published 2024).

pIC50: −log10 of the molar value.

human adenosine A2a receptor, sequence (P29274 whole entry): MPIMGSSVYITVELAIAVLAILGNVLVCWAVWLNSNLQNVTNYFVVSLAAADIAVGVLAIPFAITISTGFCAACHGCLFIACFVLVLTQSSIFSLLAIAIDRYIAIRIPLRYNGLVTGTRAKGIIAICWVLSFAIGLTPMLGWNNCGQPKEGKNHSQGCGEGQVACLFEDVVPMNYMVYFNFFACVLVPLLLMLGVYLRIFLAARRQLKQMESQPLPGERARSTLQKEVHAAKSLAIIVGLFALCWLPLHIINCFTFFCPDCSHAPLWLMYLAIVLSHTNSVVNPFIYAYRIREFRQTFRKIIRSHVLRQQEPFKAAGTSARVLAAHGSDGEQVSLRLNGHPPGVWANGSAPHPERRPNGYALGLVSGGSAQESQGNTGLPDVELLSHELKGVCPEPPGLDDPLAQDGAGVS

This assay concerns the target human adenosine A2a receptor (Homo sapiens (Human), UniProt P29274). Description: A2a receptor binding affinity, [3H]-NECA radioligand binding test. The following applies: [3H]-NECA 37 nM; membrane from HEK-293 cells transfected with human adenosine A2a receptor. The gist of the method: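 Membranes from HEK-293 cells expressing human A2a receptor were incubated with [3H]-NECA (final 37 nM) and compound for 1 h at room temperature in 50 mM Tris, 10 mM MgCl2, 1 mM EDTA, pH 7.4. Bound ligand was filtered on PEI-coated plates and counted by scintillation to derive IC50 (μM).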
Consider `CC(C)N1CCN(C(=O)[C@@H]2CCCN2c2nc(N)n3nc(-c4ccco4)nc3n2)CC1` [Example 136, (S)-(1-(7-amino-2-(furan-2-yl)-[1,2,4]triazolo[1,5-a][1,3,5]triazin-5-yl)pyrrolidin-2-yl)(4-isopropylpiperazin-1-yl)methanone], for which the pIC50 was 8.40.
On to `Nc1nc(N2CCC[C@@H]2C(=O)N2CCN(C(=O)c3ccccc3)CC2)nc2nc(-c3ccco3)nn12` [Example 98], for which the negative-log IC50 (pIC50) is 4.95. This pIC50 is 3.45 log units lower than that of the compound before.
Then `C[C@H](Nc1nc(N)n2nc(-c3ccco3)nc2n1)C(=O)N1CCC(C2CCN(CC(F)F)CC2)CC1` [Example 334, (S)-2-((7-amino-2-(furan-2-yl)-[1,2,4]triazolo[1,5-a][1,3,5]triazin-5-yl)amino)-1-(1′-(2,2-difluoroethyl)-[4,4′-bipiperidin]-1-yl)propan-1-one], with 7.89.
In the case of `CCC(O)(CC)CN1CCN(C(=O)[C@@H]2CCN2c2nc(N)n3nc(-c4ccco4)nc3n2)CC1` [Example 347, (S)-(1-(7-amino-2-(furan-2-yl)-[1,2,4]triazolo[1,5-a][1,3,5]triazin-5-yl)azetidin-2-yl)(4-(2-ethyl-2-hydroxybutyl)piperazin-1-yl)methanone] it was 7.77; in that of `CC(F)(F)CN1CCN(C(=O)[C@@H]2CCCN2c2nc(N)c3nc(-c4ccco4)sc3n2)CC1` [Example 259, (S)-(1-(7-amino-2-(furan-2-yl)thiazolo[5,4-d]pyrimidin-5-yl)pyrrolidin-2-yl)(4-(2,2-difluoropropyl)piperazin-1-yl)methanone], 8.52.
Then `CC(C)(O)CC(=O)N1CCC(C2CCN(C(=O)[C@@H]3CCCN3c3nc(N)n4nc(-c5ccco5)nc4n3)CC2)CC1` [Example 290, 1-(1′-((7-amino-2-(furan-2-yl)-[1,2,4]triazolo[1,5-a][1,3,5]triazin-5-yl)-L-prolyl)-[4,4′-bipiperidin]-1-yl)-3-hydroxy-3-methylbutan-1-one], with 8.70; and `CCCCN1CCN(C(=O)[C@@H](Nc2nc(N)n3nc(-c4ccco4)nc3n2)C2CCCCC2)CC1` [Example 187, (S)-2-((7-amino-2-(furan-2-yl)-[1,2,4]triazolo[1,5-a][1,3,5]triazin-5-yl)amino)-1-(4-butylpiperazin-1-yl)-2-cyclohexylethan-1-one], with 8.00; and `C[C@H](Nc1cc2nc(-c3ccco3)nn2c(N)n1)C(=O)N1CCN(CC(C)(C)F)CC1` [Example 375, (S)-2-((5-amino-2-(furan-2-yl)-[1,2,4]triazolo[1,5-c]pyrimidin-7-yl)amino)-1-(4-(2-fluoro-2-methylpropyl)piperazin-1-yl)propan-1-one], with 8.10.
The compound `CCCCN1CCC(C2CCN(C(=O)[C@@H]3CCN3c3nc(N)n4nc(-c5ccco5)nc4n3)CC2)CC1` [Example 328, (S)-(1-(7-amino-2-(furan-2-yl)-[1,2,4]triazolo[1,5-a][1,3,5]triazin-5-yl)azetidin-2-yl)(1′-butyl-[4,4′-bipiperidin]-1-yl)methanone] had a pIC50 of 7.60.
In the case of `Nc1nc(N2CCC[C@H]2C(=O)N2CCN(C(=O)c3ccccc3)CC2)nc2nc(-c3nccs3)nn12` [Example 192] it was 7.77.
In the case of `Cc1ccc(-c2nc3nc(N4CCC[C@H]4C(=O)N4CCN(c5ccc(F)cc5F)CC4)nc(N)n3n2)o1` [Example 87, (S)-(1-(7-amino-2-(5-methylfuran-2-yl)-[1,2,4]triazolo[1,5-a][1,3,5]triazin-5-yl)pyrrolidin-2-yl)(4-(2,4-difluorophenyl)piperazin-1-yl)methanone] it was 9.00; in that of `C[C@H](Nc1nc(N)c2nc(-c3ccco3)sc2n1)C(=O)N1CCN(C(=O)CC(C)(C)O)CC1` [Example 340, 1-(4-((7-amino-2-(furan-2-yl)thiazolo[5,4-d]pyrimidin-5-yl)-L-alanyl)piperazin-1-yl)-3-hydroxy-3-methylbutan-1-one], 7.13.
For the compound `C[C@H](Nc1nc(N)n2nc(-c3ccco3)nc2n1)C(=O)N1CCC(C2CCN(CC(C)(F)F)CC2)CC1` [Example 335, (S)-2-((7-amino-2-(furan-2-yl)-[1,2,4]triazolo[1,5-a][1,3,5]triazin-5-yl)amino)-1-(1′-(2,2-difluoropropyl)-[4,4′-bipiperidin]-1-yl)propan-1-one], the negative-log IC50 (pIC50) is 9.00. Against the preceding compound, the pIC50 is 1.87 log units higher.
Then `Cc1ccc(-c2nc3nc(N4CCC[C@H]4C(=O)N4CCC(C5CCN(CC(F)(F)F)CC5)CC4)nc(N)n3n2)o1` [Example 197, (S)-(1-(7-amino-2-(5-methylfuran-2-yl)-[1,2,4]triazolo[1,5-a][1,3,5]triazin-5-yl)pyrrolidin-2-yl)(1′-(2,2,2-trifluoroethyl)-[4,4′-bipiperidin]-1-yl)methanone], with 8.52; and `CCCC[C@H](Nc1nc(N)n2nc(-c3ccco3)nc2n1)C(=O)N1CCN(c2ccc(F)cc2F)CC1` [Example 164, (S)-2-((7-amino-2-(furan-2-yl)-[1,2,4]triazolo[1,5-a][1,3,5]triazin-5-yl)amino)-1-(4-(2,4-difluorophenyl)piperazin-1-yl)hexan-1-one], with 9.52; and `Nc1nc(N2CCC[C@H]2C(=O)N2CCC(c3ccccc3)CC2)nc2nc(-c3ccco3)nn12` [Example 128, (S)-(1-(7-amino-2-(furan-2-yl)-[1,2,4]triazolo[1,5-a][1,3,5]triazin-5-yl)pyrrolidin-2-yl)(4-phenylpiperidin-1-yl)methanone], with 8.52.
In the case of `CCCCN1CCN(C(=O)[C@@H]2CCCN2c2nc(N)n3nc(-c4ccco4)nc3n2)CC1=O` [Example 247, 4-((7-amino-2-(furan-2-yl)-[1,2,4]triazolo[1,5-a][1,3,5]triazin-5-yl)-L-prolyl)-1-butylpiperazin-2-one] it was 8.70.
In the case of `Nc1nc(N2CCC[C@H]2C(=O)N2CCN(C(=O)C3CCC(O)CC3)CC2)nc2nc(-c3ccco3)nn12` (some centres unmarked) [Example 230] it was 8.22; in that of `CC[C@H](Nc1nc(N)n2nc(-c3ccco3)nc2n1)C(=O)N1CCN(c2ccc(F)cc2F)CC1` [Example 162, (S)-2-((7-amino-2-(furan-2-yl)-[1,2,4]triazolo[1,5-a][1,3,5]triazin-5-yl)amino)-1-(4-(2,4-difluorophenyl)piperazin-1-yl)butan-1-one], 8.10; in that of `Nc1nc(NCC(=O)N2CCN(Cc3ccc(F)cc3F)CC2)nc2nc(-c3ccco3)nn12` [Example 15, 2-((7-amino-2-(furan-2-yl)-[1,2,4]triazolo[1,5-a][1,3,5]triazin-5-yl)amino)-1-(4-(2,4-difluorobenzyl)piperazin-1-yl)ethan-1-one], 8.22.
`CC(C)(O)C(=O)N1CCN(C(=O)[C@@H]2CCCN2c2nc(N)n3nc(-c4ccco4)nc3n2)CC1` [Example 274, 1-(4-((7-amino-2-(furan-2-yl)-[1,2,4]triazolo[1,5-a][1,3,5]triazin-5-yl)-L-prolyl)piperazin-1-yl)-2-hydroxy-2-methylpropan-1-one]: the pIC50 was 8.10.
In the case of `C[C@H](Nc1nc(N)n2nc(-c3ccco3)nc2n1)C(=O)N1CC2(CCN(Cc3ccc(F)cc3F)CC2)C1` [Example 30, (S)-2-((7-amino-2-(furan-2-yl)-[1,2,4]triazolo[1,5-a][1,3,5]triazin-5-yl)amino)-1-(7-(2,4-difluorobenzyl)-2,7-diazaspiro[3.5]nonan-2-yl)propan-1-one] it was 9.00; in that of `C[C@@H]1CN(Cc2ccc(F)cc2F)CCN1C(=O)[C@@H]1CCCN1c1nc(N)n2nc(-c3ccco3)nc2n1` [Example 51, ((S)-1-(7-amino-2-(furan-2-yl)-[1,2,4]triazolo[1,5-a][1,3,5]triazin-5-yl)pyrrolidin-2-yl)((R)-4-(2,4-difluorobenzyl)-2-methylpiperazin-1-yl)methanone], 7.89.
Then `Nc1nc(N2CC[C@H]2C(=O)N2CCC(C3CCN(CC(F)(F)C(F)F)CC3)CC2)nc2nc(-c3ccco3)nn12` [Example 325, (S)-(1-(7-amino-2-(furan-2-yl)-[1,2,4]triazolo[1,5-a][1,3,5]triazin-5-yl)azetidin-2-yl)(1′-(2,2,3,3-tetrafluoropropyl)-[4,4′-bipiperidin]-1-yl)methanone], with 8.10.
Then `CC(F)(F)CN1CCN(C(=O)[C@@H]2CCCN2c2nc(N)n3nc(-c4ccco4)nc3n2)CC1` [Example 224, (S)-(1-(7-amino-2-(furan-2-yl)-[1,2,4]triazolo[1,5-a][1,3,5]triazin-5-yl)pyrrolidin-2-yl)(4-(2,2-difluoropropyl)piperazin-1-yl)methanone], with 8.22.
The compound `CCC(O)(CC)CN1CCN(C(=O)[C@@H](Nc2nc(N)n3nc(-c4ccco4)nc3n2)C(C)C)CC1` [Example 348, (S)-2-((7-amino-2-(furan-2-yl)-[1,2,4]triazolo[1,5-a][1,3,5]triazin-5-yl)amino)-1-(4-(2-ethyl-2-hydroxybutyl)piperazin-1-yl)-3-methylbutan-1-one] gave a pIC50 of 8.30.
Then `CCCCN1CCN(C(=O)[C@@H]2CCCN2c2cc3nc(-c4ccco4)nn3c(N)n2)CC1` [Example 361, (S)-(1-(5-amino-2-(furan-2-yl)-[1,2,4]triazolo[1,5-c]pyrimidin-7-yl)pyrrolidin-2-yl)(4-butylpiperazin-1-yl)methanone], with 8.05; and `Nc1nc(N2CCC[C@H]2C(=O)N2CCC(C3CCN(C(=O)Nc4ccccc4)CC3)CC2)nc2nc(-c3ccco3)nn12` [Example 184, 1′-((7-amino-2-(furan-2-yl)-[1,2,4]triazolo[1,5-a][1,3,5]triazin-5-yl)-L-prolyl)-N-phenyl-[4,4′-bipiperidine]-1-carboxamide], with 7.92; and `C[C@H](Nc1nc(N)n2nc(-c3ccco3)nc2n1)C(=O)N1C[C@@H]2C[C@H]1CN2Cc1ccc(F)cc1F` [Example 32, (S)-2-((7-amino-2-(furan-2-yl)-[1,2,4]triazolo[1,5-a][1,3,5]triazin-5-yl)amino)-1-((1S, 4S)-5-(2,4-difluorobenzyl)-2,5-diazabicyclo[2.2.1]heptan-2-yl)propan-1-one], with 9.30.

As usually defined, the pIC50 is the negative decadic logarithm of the IC50, by convention in mol/L. A high value points to a small IC50.
